Reference: ChEMBL document CHEMBL2331177, “Pleurospiroketals A-E, perhydrobenzannulated 5,5-spiroketal sesquiterpenes from the edible mushroom Pleurotus cornucopiae” (J Nat Prod, 2013)

Columns and labels:
RAW264.7 [1] = assay: Inhibition of LPS-induced nitric oxide production in mouse RAW264.7 cells treated 1 hr before LPS challenge measured after 24 hrs by Griess reaction method; format: functional, cell-based
RAW264.7 [2] = assay: Cytotoxicity against mouse RAW264.7 cells at 100 uM; format: cell-based; conditions: raw264.7, 100 µM
HeLa = assay: Cytotoxicity against human HeLa cells after 72 hrs by MTT assay; format: functional, cell-based

| IC50 (RAW264.7 [1]) [µM] | SMILES | Activity (RAW264.7 [2]) | IC50 (HeLa) [µM] |
| --- | --- | --- | --- |
| 12.6 | C=C1[C@H]2CC[C@](C)(O)[C@H](O)[C@H]2O[C@]12OC(C)(C)CC2=O [PLEUROSPIROKETAL B] | Non-toxic | 32.8 |
| 20.8 | CC(=O)OCC1=C2CC[C@](C)(O)[C@H](O)[C@H]2O[C@@]12OC(C)(C)CC2=O [PLEUROSPIROKETAL C] | Non-toxic | 18.8 |
| 53.8 | C[C@]12CCC(=O)C=C1CC[C@@H]1[C@@H]2[C@@H](O)C[C@@]2(C)[C@H]1CC[C@]2(O)C(=O)CO [HYDROCORTISONE] | – | – |
| 6.8 | C=C1[C@H]2CC[C@](C)(O)[C@H](O)[C@H]2O[C@@]12OC(C)(C)CC2=O [PLEUROSPIROKETAL A] | Non-toxic | 20.6 |
